From patent US11299543B2, “Use of an anti-PD-1 antibody in combination with an anti-CD30 antibody in cancer treatment” (Bristol-Myers Squibb Company, priority 2016, dated 2022)
“Also recorded” adds a separate entry of the source. *1 amine or outer side, *2 acyl side, *3 side chain or, on linkers, in order; H or OH if unused. Where a SMILES comes first, the peptide text is derived from it. [ ]: non-standard residue; d: D form. The star is where a group is joined. Dolaproine = CO[C@@H]([C@@H]1CCCN1)[C@@H](C)C(=O)O; Hexanoyl(6-maleimido) = O=C1C=CC(=O)N1CCCCCC(=O)*; Dil = CC[C@H](C)[C@H](NC)[C@@H](CC(=O)O)OC; PABC = O=C(OCc1ccc(N[*:1])cc1)[*:2]; X1 = C[C@@H](N*)[C@@H](O)c1ccccc1; Cit = NC(=O)NCCC[C@H](N)C(=O)O; NMeV = CN[C@H](C(=O)O)C(C)C

Assays:
wild-type A20 cells [1] = test: immunization with drug-killed A20^hcD30 cells plus anti-PD-1, A20 challenge; assay type: in vivo, Balb/c mice; details: anti-PD-1 1 mg/kg i.v. days 6, 9, 14, 17
Method: Balb/c mice were immunized with BV- or MMAE-killed A20^hcD30 cells as described above. 14 days after initial immunization, mice were subcutaneously implanted with 5×10^6 wild-type A20 cells. Anti-murine PD-1 (1 mg/kg, BioLegend) was administered intravenously on days 6, 9, 14, and 17 after A20 tumor challenge.

wild-type A20 cells [2] = test: immunization with drug-killed A20^hcD30 cells, then wild-type A20 challenge; assay type: in vivo, Balb/c mice; details: mice immunized with drug-killed A20^hcD30 cells; for tumor growth: 5×10^6 wild-type A20 cells s.c.
Method: A20 mouse lymphoma cells were transfected with plasmid constructs encoding human TNFRSF8 (NM_001243.4) and sgRNA/Cas9 for control under the endogenous promoter of murine Tnfrsf8. Fluorescence activated cell sorting (FACS) yielded a clonal population of A20 cells that stably expressed human CD30, to be referenced as A20^hcD30, in order to be susceptible to brentuximab vedotin treatment.
A20^hcD30 cells were cultured in RPMI 1640 with 10% FBS, 10 mM HEPES, 1 mM sodium pyruvate, penicillin (100 U/ml), and streptomycin (100 μg/ml). A20^hcD30 cells were treated with 1 μg/ml BV or 100 nM mc-vc-MMAE for 4 days. In order to prepare dying cells for immunization, treated A20^hcD30 cells were overlaid atop Histopaque, and centrifuged at 2000 g for 30 minutes. Dead and dying cells were pelleted underneath the Histopaque layer, and viability was assessed to be <20% live cells by trypan blue exclusion. Flash-frozen A20^hcD30 cells were prepared by submerging cells in liquid nitrogen for 10 seconds, followed by immersion in 37° C. water until completely thawed. The liquid nitrogen freeze-thaw process was repeated 5 times. Dead and dying A20^hcD30 cells were resuspended in PBS and 2×10^6 cells were injected into the peritoneum of immune-competent Balb/c mice. 7 days later, mice received a second immunization with dead and dying cells prepared in the same manner.
14 days after initial immunization, mice were subcutaneously implanted with 5×10^6 wild-type A20 cells and monitored for tumor growth. […] As these effects occurred in the absence of any administered therapeutic, the presence of cells killed by BV or MMAE were sufficient to generate long-lasting protective immune memory against subsequent A20 lymphoma challenge.

[3] = test system: peripheral blood T cell subsets; test: phase 1/2 study NCT02572167, peripheral blood immunophenotyping; assay type: in vivo, human
From the text: FIGS. 7A-7C show peripheral blood immunophenotyping. T helper subsets, such as Tregs, (FIG. 7A), activated CD4^+ T cells (FIG. 7B), and proliferating CD4^+ T cells (FIG. 7C), which were reduced after single agent BV dosing, expanded after BV and nivolumab combination dosing.
(§1) A phase 1/2 study (NCT02572167) is ongoing to assess the safety profile and antitumor activity of BV administered in combination with nivolumab in patients with relapsed or refractory Hodgkin lymphoma (HL). Patients will be treated for up to four 21-day cycles with BV 1.8 mg/kg and nivolumab 3 mg/kg. Patients will be administered 1.8 mg/kg BV on Cycle 1 Day 1, and 3 mg/kg nivolumab on Cycle 1 Day 8. For cycles 2 through 4, BV and nivolumab will be administered on Day 1 of each cycle at the same doses, e.g., 1.8 mg/kg BV and 3 mg/kg nivolumab. Both BV and nivolumab will be administered by IV injection. After completion of the Cycle 4 response assessment (EOT), patients will be eligible to undergo ASCT. Responses were assessed using the 2014 Lugano classification (Cheson et al., J Clin Oncol 2014; 32(27):3059-68).

LCL tumors [4] = test: immune-mediated tumor clearance in the humanized LCL tumor model; assay type: in vivo, NSG mice
Method: Epstein Barr virus (EBV) transformed lymphoblastoid cell lines (LCL) were implanted subcutaneously into NSG mice. When LCL tumors averaged 250 mm^3, mice received a single suboptimal dose of BV or control hIgG-MMAE (1 mg/kg, i.p). Three days following dosing, 2×10^6 autologous PBMC were adoptively transferred to mice via tail vein injection. Mice received two doses of nivolumab (10 mg/kg, i.p.) 2 and 7 days after adoptive transfer of PBMC. […] The significance of these differences is reflected in a comparison of mean tumor volumes at day 50, during active tumor clearance (FIG. 15B). Taken together, results obtained from this humanized model support the conclusion that in addition to direct tumor cell killing, BV drives an inflammatory response that enhances immune-mediated cellular cytotoxicity and pairs well with nivolumab.

LCL tumors [5] = test: T cell and NK cell infiltration into autologous LCL tumors, humanized mouse model; assay type: in vivo, NSG mice; details: single suboptimal dose 1 mg/kg i.p., autologous PBMC transferred
Method: Epstein Barr virus (EBV) transformed lymphoblastoid cell Lines (LCL) were implanted subcutaneously into NSG mice. When LCL tumor volumes reached 250 mm^3, mice received a single suboptimal dose of BV or control hIgG-MMAE (1 mg/kg, i.p). Three days following dosing, 2.0×10^6 autologous peripheral blood mononuclear cells (PBMC) were adoptively transferred to mice via tail vein injection. Eleven days following transfer of PBMC, tumors were harvested, weighed, and manually dissociated through a 70 μm cell strainer. Following centrifugation, individual tumor cell pellets were resuspended in 4 ml of RPMI+10% FCS, and 200 ul of the cell suspension was used for staining and analysis by flow cytometry (FACS). Tumor cell suspensions were stained with Zombie Aqua Viability Dye (Biolegend) followed by staining with fluorescently labeled antibodies targeting human CD19, CD2, CD8, CD4, CD56, human CD45, PD-L1, PD-1, and murine CD45.1 (1:50 dilution, Biolegend) in staining buffer (SB: PBS, 2% FCS, 1% NRS, 0.05% NaN3) at 4° C. for 30 minutes. Cells were washed and resuspended in 120 μl of SB for plate-based FACS using an Attune NXT flow cytometer. All events were collected from 80 μl of sample, and FACS-measured cell concentrations were used to calculate numbers of infiltrating immune cells. CD8^+ T cells were identified as viability dye^neg, hCD45^+, mCD45.1^−, CD2^+, CD8^+ cells. […]

[6] = test system: CD30+ relapsed, refractory DLBCL; details: patients treated with BV; cited from earlier work
[7] = test system: CD30+ relapsed, refractory peripheral T-cell lymphoma (PTCL); details: patients treated with BV; cited from earlier work
[8] = test system: CD30+ cutaneous T-cell lymphoma (CTCL); details: patients treated with BV; cited from earlier work
wild-type A20 cells [9] = test: T cell transfer from immunized mice into A20 tumor-bearing NSG mice; assay type: in vivo
Method: Immune-competent Balb/c mice were immunized with BV-killed or flash-frozen-killed A20^hcD30 cells as previously described. 16 weeks after initial immunization, spleens were harvested from immunized mice or naïve Balb/c mice, and manually homogenized. Splenic homogenates were combined from 4 mice per immunization, and CD3^+ T cells were isolated using EasySep Mouse T cell Enrichment Kit (Stem Cell Technologies). 1×10^6 CD3+ T cells were administered intravenously into A20 tumor-bearing mice.
4×10^6 wild-type A20 cells were subcutaneously implanted into immunodeficient NOD/SCID/γ-chain-deficient (NSG) mice. 5 days after implant, mice harboring tumors˜100 mm^3 were randomized, and received 1×10^6T cells from mice as described above.

TARC, IP10, IL-18, IFNγ = test: phase 1/2 study NCT02572167, serum cytokine and chemokine levels; assay type: in vivo, human
Method: FIGS. 6A-6D show priming of the immune system of patients treated with brentuximab vedotin (BV) in combination with nivolumab.
as §1

CD30^+ cell lines = details: in vitro; cited from earlier work
[10] = test system: xenograft models of Hodgkin disease; details: SCID mouse xenograft; cited from earlier work
PD-1 = target: T1, PD-1 (Homo sapiens, UniProt Q15116); details: 15 subjects, 0.3 mg/kg to 10 mg/kg nivolumab, across all doses; cited from earlier work
T1 construct: Receptor-occupancy data from 15 subjects who received 0.3 mg/kg to 10 mg/kg dosing with nivolumab indicate that PD-1 occupancy appears to be dose-independent; host or cells: endogenous receptor in dosed subjects

[11] = monotherapy, every two weeks; MTD not reached; cited from earlier work

T1 sequence (Q15116 25-288): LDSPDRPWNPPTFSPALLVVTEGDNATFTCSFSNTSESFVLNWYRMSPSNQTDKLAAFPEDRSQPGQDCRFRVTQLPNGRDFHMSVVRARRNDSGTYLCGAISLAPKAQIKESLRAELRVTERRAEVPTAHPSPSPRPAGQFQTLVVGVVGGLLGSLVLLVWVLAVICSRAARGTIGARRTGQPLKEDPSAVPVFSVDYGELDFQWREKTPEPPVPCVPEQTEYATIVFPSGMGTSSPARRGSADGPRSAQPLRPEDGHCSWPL

Q: With `CC[C@H](C)[C@@H]([C@@H](CC(=O)N1CCC[C@H]1[C@H](OC)[C@@H](C)C(=O)N[C@H](C)[C@@H](O)c1ccccc1)OC)N(C)C(=O)[C@@H](NC(=O)[C@H](C(C)C)N(C)C(=O)OCc1ccc(NC(=O)[C@H](CCCNC(N)=O)NC(=O)[C@@H](NC(=O)CCCCCN2C(=O)C=CC2=O)C(C)C)cc1)C(C)C` [mc-vc-MMAE] ({Hexanoyl(6-maleimido)}-V[Cit][PABC][NMeV]V[Dil][Dolaproine]-X1) as the compound, how does the protective anti-tumor immunity (wild-type A20 cells [1]) read?
A: conferred protective anti-tumor immunity

Q: What about the “survival of tumor-bearing mice” value (wild-type A20 cells [2]) of the same compound?
A: increased survival

Q: What about the tumor growth (wild-type A20 cells [2]) of the same compound?
A: delayed tumor growth

Q: Which results are given for “BV: CD30-directed antibody-drug conjugate: chimeric anti-CD30 antibody cAC10, MMAE and a protease-cleavable linker”?
A: percentage of CD4+ T regulatory (Treg) cells ([3]; Cycle 1 Day 8, preliminary): decrease; proliferating CD8+ T cells ([3]; Cycle 1 Day 8, preliminary): no effect; T helper subsets, such as Tregs ([3]; peripheral blood): initial reduction; also recorded: reduced; activated CD4+ T cells ([3]; peripheral blood): initial reduction; also recorded: reduced; proliferating CD4+ T cells ([3]; peripheral blood): initial reduction; also recorded: reduced; tumor rejection (LCL tumors [4]; suboptimal dose 1 mg/kg i.p. without the addition of PBMC): did not reject tumors; immune-mediated tumor clearance (LCL tumors [4]; with autologous PBMC, BV 1 mg/kg i.p., nivolumab 10 mg/kg i.p.): enhanced immune-mediated tumor clearance; intratumoral accumulation of human cytotoxic cells (LCL tumors [5]): enhanced intratumoral accumulation of human cytotoxic cells; ORR [6]: 44%; protective anti-tumor immunity (wild-type A20 cells [1]): conferred protective anti-tumor immunity; ORR [7]: 41%; ORR [8]: 73%; tumor growth (wild-type A20 cells [9]; NSG mice given 1×10^6 T cells from mice immunized with BV-killed cells): slowed tumor growth; CD8 T cells within the tumor (wild-type A20 cells [9]; NSG mice given T cells from mice immunized with BV-killed cells): increased CD8 T cells within the tumor; survival of tumor-bearing mice (wild-type A20 cells [2]): increased survival; tumor growth (wild-type A20 cells [2]): delayed tumor growth; pro-inflammatory cytokine and chemokine levels (TARC, IP10, IL-18, IFNγ; after BV dosing, following concurrent BV and nivolumab): increase; Pro-inflammatory cytokine IL-18 levels (TARC, IP10, IL-18, IFNγ; after C1D1 BV dosing, with BV and nivolumab dosing): significantly higher; T-cell chemokine IP10 levels (TARC, IP10, IL-18, IFNγ; after C1D1 BV, following C1D8 nivolumab dosing): significantly higher; Serum TARC levels (TARC, IP10, IL-18, IFNγ; compared to baseline): significantly lower

Q: What does the source list for “cAC10: chimeric IgG1 monoclonal antibody that specifically binds CD30”?
A: growth of CD30+ cell lines (CD30^+ cell lines): induces growth arrest; antitumor activity [10]: pronounced antitumor activity

Q: For nivolumab, which T cells ([3]; Cycle 1, one week after nivolumab dosing (2 weeks after BV dosing)) is on record?
A: robust expansion

Q: And the “percentage of CD4+ Th1 cells compared to baseline” value ([3]; most patients (5 of 6, 83%))?
A: no significant change

Q: And the “mean occupancy rate (PD-1)” value (PD-1)?
A: 85%

Q: What about the “mean plateau occupancy (PD-1)” value (PD-1) of the same compound?
A: 72%

Q: What about the “maximum tolerated dose (MTD)” value [11] of the same compound?
A: > 10 mg/kg
